# Measured values published in PMC3658936, “Comparison of cyclic RGD peptides for αvβ3 integrin detection in a rat model of myocardial infarction” (EJNMMI Research, 2013).
# Like-named read-outs stand apart in the source and are kept apart here.
# Experiments:
# αvβ3 integrin [1] = assay: in vivo; conditions: for tissue uptake per volume at 1.375 h: male, Lewis, in vivo, iv, total radioactivity
# Protocol: Permanent ligation of the left anterior descending coronary artery was performed, as previously described in 34 healthy male Lewis rats (Charles Rivers Laboratories, Sulzfeld, Germany) aged 8 to 10 weeks to induce MI. Briefly, the rats were anaesthetised with intramuscular administration of midazolam 5 mg/kg (Dormicum®, Roche; Grenzach-Wyhlen, Germany), medetomidin 0.5 mg/kg (Dormitor®, Pfizer, Karlsruhe, Germany) and fentanyl 0.05 mg/kg (Ratiopharm, Ulm, Germany) and connected to a rodent ventilator. The heart was exposed through a left lateral thoracotomy of the fourth intercostal space, and the left anterior descending (LAD) artery was ligated near to its origin (2 to 3 mm from the tip of the left atrium). Two rats underwent sham operation, which consisted of the same procedures except that the LAD artery suture was not tightened. The rats were treated with 0.05 mg/kg buprenorphin (Temgesic®, Essex, Germany) and 4 mg/kg carprofen (Rimadyl, Pfizer, Germany) for 72 h post surgery. The study protocols were approved by the regional governmental commission for animal protection (Regierung von Oberbayern, Munich, Germany).
# A subset of animals (n = 7) was imaged using a small-animal PET/CT scanner (Inveon, Siemens Medical Solutions, Knoxville, TN, USA). The rats were anaesthetised using 1.5% isoflurane. Breathing was monitored and temperature was maintained using a heating pad throughout the imaging procedures. The rats were injected with 37 MBq of [^13N]NH3 via tail a vein catheter, and perfusion images were acquired for 15 min starting at the time of injection. A CT scan was performed for anatomical localisation. The animals were left anaesthetised in the scanner, and 60 min later, the animals were injected with either ^68Ga-NODAGA-RGD (72 MBq, n = 4) or ^68Ga-TRAP(RGD)3 (63 MBq, n = 3) via the tail vein. […]
# The ^68Ga- and ^13N-PET images were fused, and the uptake was visualised using the Inveon Research Workplace (Siemens, Knoxville, TN, USA). […] The mean radioactivity concentration within the ROI was expressed as the percentage of injected dose per cubic centimetre (% ID/cc).
# [2] = Ex vivo biodistribution in tissues by gamma counting; parameters: species or system rat; conditions: for tissue uptake at 1.5 h: Lewis, rat, in vivo, total radioactivity
# Protocol: Rats were anesthetised using 1.5% isoflurane and were injected via tail vein catheter with ^18F-galacto-RGD (37 MBq, n = 9), ^68Ga-NODAGA-RGD (69 MBq, n = 10) or of ^68Ga-TRAP(RGD)3 (54 MBq, n = 12). Rats were kept under anaesthesia in a warmed bed until euthanized after 90 min using intravenous injection of 150 mg/kg of pentobarbiturate (Narcoren®, Merial, Rohrdorf, Germany). The heart was excised and cut transaxially at the location of the infarct. The apical part, containing both infarct and non-affected remote myocardium, was processed for sectioning for autoradiography as described below.
# Tissue samples (remote myocardium, apical part of myocardium, femoral muscle, operation wound and the connective tissue contralateral to the wound, spleen, liver, kidney, urine and blood) were dissected, and the weights of the tissue, urine, blood and serum samples were measured and their activity was detected using a gamma counter (1480 Wizard, PerkinElmer Wallac, Turku, Finland).
# αvβ3 integrin [3] = assay: Ex vivo autoradiography of RGD tracer uptake in the myocardium (infarct vs. remote); conditions: rat MI 1 week after LAD ligation, 90 min p.i., mean ± SD
# Protocol: Permanent ligation of the left anterior descending coronary artery was performed, as previously described in 34 healthy male Lewis rats (Charles Rivers Laboratories, Sulzfeld, Germany) aged 8 to 10 weeks to induce MI. Briefly, the rats were anaesthetised with intramuscular administration of midazolam 5 mg/kg (Dormicum®, Roche; Grenzach-Wyhlen, Germany), medetomidin 0.5 mg/kg (Dormitor®, Pfizer, Karlsruhe, Germany) and fentanyl 0.05 mg/kg (Ratiopharm, Ulm, Germany) and connected to a rodent ventilator. […]
# The excised hearts were frozen and embedded in Tissue Tek® mounting media (Sakura Finetek Europe B.V., Alphen aan den Rijn, the Netherlands). […] After an overnight exposure, the imaging plates were scanned with an image plate scanner (CR 35 BIO, Dürr Medical, Raytest Isotopenmeßgeräte GmbH, Germany; internal resolution of 25 μm), and the images were analysed for background-corrected count densities (PSL/mm^2) with an image analysis programme (AIDA Image Analyser, Raytest Isotopenmeßgeräte, Germany). […]
# (§1) After careful co-registration of the autoradiographs and HE histological images, regional tracer uptake was analysed in the following two regions: (1) the infarcted myocardium containing the border zone as assessed after HE staining and (2) the remote, non-affected myocardium. […]
# αvβ3 integrin [4] = test system: αvβ3 integrin; parameters: method as in PMID 22147338, PMID 22444238; conditions: competitive displacement assay on M21 human melanoma cells; cited from earlier work
# αvβ3 integrin [5] = assay: Specificity of RGD binding: pre-injection of a blocking dose of cilengitide, autoradiography; type: in vivo, rat; conditions: cilengitide 18 mg/kg 10 min prior to tracer injection
# Protocol: The specificity of the RGD binding was studied on three rats with pre-injection of a blocking dose of cilengitide (18 mg/kg = 30.6 μmol/kg) 10 min prior to the tracer injection.
# The excised hearts were frozen and embedded in Tissue Tek® mounting media (Sakura Finetek Europe B.V., Alphen aan den Rijn, the Netherlands). Serial LV short-axis cryosections of 20-μm thickness were obtained. Similar sections of muscle and spleen samples of the same rat were processed and used as negative and positive controls. After quick air drying, the sections were exposed to an imaging plate (Kodak Storage Phosphor screen GP, Eastman Kodak Company, Rochester, NY, USA). After an overnight exposure, the imaging plates were scanned with an image plate scanner (CR 35 BIO, Dürr Medical, Raytest Isotopenmeßgeräte GmbH, Germany; internal resolution of 25 μm), and the images were analysed for background-corrected count densities (PSL/mm^2) with an image analysis programme (AIDA Image Analyser, Raytest Isotopenmeßgeräte, Germany). […]
# as §1
compound,measurement,setting,value
"N=C(N)NCCC[C@@H]1NC(=O)[C@H](CCCCNC(=O)CCC(C(=O)O)N2CCN(CC(=O)O)CCN(CC(=O)O)CC2)NC(=O)[C@@H](Cc2ccc(O)cc2)NC(=O)[C@H](CC(=O)O)NC(=O)CNC1=O (stereo partly shown) [^68Ga-NODAGA-RGD, ^68Ga-NODAGA-cyclo(RGDyK), metal not drawn]",tissue uptake per volume at 1.375 h,αvβ3 integrin [1]; rat,0.17 ± 0.03 %ID/mL
same,tissue uptake at 1.5 h,[2]; Biodistribution: Apical myocardium,0.156 ± 0.06 %ID/g
same,tissue uptake at 1.5 h,[2]; Biodistribution: Blood,0.058 ± 0.02 %ID/g
same,tissue uptake at 1.5 h,[2]; Biodistribution: Connective tissue,0.11 ± 0.05 %ID/g
same,tissue uptake at 1.5 h,[2]; Biodistribution: Kidney,1.1 ± 0.7 %ID/g
same,tissue uptake at 1.5 h,[2]; Biodistribution: Liver,0.23 ± 0.17 %ID/g
same,tissue uptake at 1.5 h,[2]; Biodistribution: Muscle,0.035 ± 0.01 %ID/g
same,tissue uptake at 1.5 h,[2]; Biodistribution: Remote myocardium,0.071 ± 0.03 %ID/g
same,tissue uptake at 1.5 h,[2]; Biodistribution: Serum,0.094 ± 0.05 %ID/g
same,tissue uptake at 1.5 h,[2]; Biodistribution: Spleen,0.246 ± 0.16 %ID/g
same,tissue uptake at 1.5 h,[2]; Biodistribution: Urine,20.2 ± 6.4 %ID/g
same,tissue uptake at 1.5 h,[2]; Biodistribution: Wound,0.27 ± 0.24 %ID/g
"N=C(N)NCCC[C@@H]1NC(=O)[C@H](CCCCNC(=O)CCP(=O)(O)CN2CCN(CP(=O)(O)CCC(=O)NCCCC[C@@H]3NC(=O)[C@@H](Cc4ccccc4)NC(=O)[C@H](CC(=O)O)NC(=O)CNC(=O)[C@H](CCCNC(=N)N)NC3=O)CCN(CP(=O)(O)CCC(=O)NCCCC[C@@H]3NC(=O)[C@@H](Cc4ccccc4)NC(=O)[C@H](CC(=O)O)NC(=O)CNC(=O)[C@H](CCCNC(=N)N)NC3=O)CC2)NC(=O)[C@@H](Cc2ccccc2)NC(=O)[C@H](CC(=O)O)NC(=O)CNC1=O [^68Ga-TRAP(RGD)3, ^68Ga-TRAP(cyclo(RGDfK))3, metal not drawn]",infarct vs. remote PSL/mm2 uptake ratio,αvβ3 integrin [3],4.1 ± 0.7
same,infarct-to-remote ratio (PET),"αvβ3 integrin [1]; PET image-derived, rat MI 1 week",1.9
same,tissue uptake per volume at 1.375 h,"αvβ3 integrin [1]; PET, 82.5 min after injection, rat MI 1 week, read-out: image-derived average uptake in the myocardium, infarct area",0.25 ± 0.02 %ID/mL
same,tissue uptake at 1.5 h,"[2]; 90 min p.i., mean ± SD, contains both infarct and remote areas, read-out: Biodistribution: Apical myocardium",0.353 ± 0.1 %ID/g
same,tissue uptake at 1.5 h,"[2]; 90 min p.i., mean ± SD, contralateral to the wound, read-out: Biodistribution: Connective tissue",0.19 ± 0.08 %ID/g
same,tissue uptake at 1.5 h,"[2]; 90 min p.i., mean ± SD, read-out: Biodistribution: Blood",0.101 ± 0.07 %ID/g
same,tissue uptake at 1.5 h,"[2]; 90 min p.i., mean ± SD, read-out: Biodistribution: Kidney",1.45 ± 0.51 %ID/g
same,tissue uptake at 1.5 h,"[2]; 90 min p.i., mean ± SD, read-out: Biodistribution: Liver",0.524 ± 0.61 %ID/g
same,tissue uptake at 1.5 h,"[2]; 90 min p.i., mean ± SD, read-out: Biodistribution: Muscle",0.066 ± 0.03 %ID/g
same,tissue uptake at 1.5 h,"[2]; 90 min p.i., mean ± SD, read-out: Biodistribution: Remote myocardium",0.154 ± 0.09 %ID/g
same,tissue uptake at 1.5 h,"[2]; 90 min p.i., mean ± SD, read-out: Biodistribution: Serum",0.166 ± 0.12 %ID/g
same,tissue uptake at 1.5 h,"[2]; 90 min p.i., mean ± SD, read-out: Biodistribution: Spleen",0.415 ± 0.3 %ID/g
same,tissue uptake at 1.5 h,"[2]; 90 min p.i., mean ± SD, read-out: Biodistribution: Urine",35.1 ± 22.4 %ID/g
same,tissue uptake at 1.5 h,"[2]; 90 min p.i., mean ± SD, read-out: Biodistribution: Wound",0.256 ± 0.12 %ID/g
same,apical-to-remote ratio,"[2]; gamma counting, apical part vs. remote myocardium tissue sample",2.1
same,IC50,αvβ3 integrin [4],44 nM
"^18F-galacto-cyclo(RGDfK) [^18F-galacto-RGD, reference compound]",infarct vs. remote PSL/mm2 uptake ratio,αvβ3 integrin [3],4.7 ± 0.8
same,IC50,αvβ3 integrin [4],319 nM
cilengitide,effect of pre-injection of high-dose cilengitide on tracer uptake,αvβ3 integrin [5],reduced the uptake in the myocardium and also in the spleen
